One compound from US12384746B2, “Physics-driven discovery of novel small therapeutic compounds for use as a BCL-2 inhibitor” (BAHCESEHIR UNIVERSITESI, priority 2020, dated 2025) can be followed below.

The subject of the test is HCT-116 cells. The test can be described thus: MTT cell proliferation assay on HCT-116 cells. In kind it is cell-based. The procedure: For cell culture experiments various cancer cell lines, HCT-116 colon cancer, U87-MG glial tumor, MCF7 breast cancer cell lines were used. Cells were seeded with high glucose DMEM medium (Biosera) supplemented with 10% FBS (Gibco) and 1× penicillin/streptomycin (Multicell). Twenty-four hours prior to molecule treatment, 10,000 cells were seeded into each well of 24-well cell culture plates. Molecules were used by preparing 4 mM stock solution in DMSO (Amresco). For molecule treatment, molecule stock solutions were diluted in DMEM with 10% FBS and added onto cells in each corresponding well. Final concentration of vehicle DMSO was 2% at maximum. […] We calculated the number of cells to be seeded to make sure that none of the cells reaches more than 60% confluency during the treatment period, as higher plate confluency levels would slow down cell proliferation independently from the molecule treatment.
Values of half-maximal inhibitory concentration were (IC50) determined by MTT cell proliferation assays. […] 570 nm absorbance values were recorded and IC50 values were calculated by dose response—inhibition curves and nonlinear regression analysis on GraphPad Prism 8 software. […] Following the initial incubation day, molecules were added and after incubation with MTT at 37° C. for 4 hours, formazan was solubilized with DMSO (Sigma-Aldrich, St. Louis, USA) and absorbance was measured at 570 nm. […]
In general terms: Formazan colour is commonly taken as a measure of viable cells.

Peptide text beside a SMILES is read from it. * marks the point of attachment. Boc = CC(C)(C)OC(=O)*

In the case of `CCC(C)C(NC(=O)C(Cc1c[nH]c2ccccc12)NC(=O)OC(C)(C)C)C(=O)NC(CC(C)C)C(N)=O` (stereo not drawn) [compound of formula I] (Boc-Trp-Ile-Leu-NH2; configuration not given here), the “proliferation of HCT-116 cells compared to vehicle group” value (HCT-116 cells, MTT assay, FIG. 1) was “reduced proliferation and apoptotic cell structures”. Moreover, under “Homo sapiens, 72 h, HCT-116 colon cancer cells, single treatment, three days, 570 nm absorbance, read-out: IC50 (half-maximal inhibitory concentration), MTT cell proliferation”, the IC50 is 17 µM.
